Converted amounts (≈) assume the structure as drawn.
Key:
[1] = system: antiserum raised to Immunogen A (Hapten-A-BTG); experiment: Competitive ELISA with antiserum raised to Immunogen A and Conjugate A (Hapten-A-HRP) as detection reagent; type: binding, sheep
Description: Aqueous solutions of the immunogens prepared in Examples 6 and 12 were formulated with Freund's Complete Adjuvant (FCA) to form emulsions of Immunogen A and Immunogen [[B]]C in 50% (v/v) FCA. Individual sheep were immunised with the emulsions of Immunogen A and Immunogen C (primary immunisations), 0.25 ml being subcutaneously injected in the flank of each animal. Subsequent boosts of emulsified immunogens in 50% (v/v) Freund's Incomplete Adjuvant (FIA) were at monthly intervals for 1 year. Blood sampling took place 7-14 days after each boost. Each sample was processed to produce antisera which were further purified by caprylic acid and ammonium sulfate precipitated to yield an immunoglobulin G (IgG) fraction. The IgG fraction was evaluated by competitive ELISA microtitre plate assay, as described in Example 15.
The wells of an enhanced binding 96 well polystyrene microtitre plate were coated with the IgG fraction of the antiserum raised to Immunogen A Hapten A-BTG diluted in 10 mM Tris, pH8.5 (125 μl/well). The appropriate antibody coating dilution was determined using standard ELISA chequerboard techniques. The plate was incubated for 2 hours at 37° C., washed 4 times with Tris buffered saline containing Tween 20 (TBST) and tapped dry. […] 75 μl of Conjugate A (Hapten A-HRP), diluted in Tris buffer containing EDTA, D-mannitol, sucrose, thimerosal and BSA, was added to each of the wells. The appropriate dilution of conjugate was also determined using standard ELISA chequerboard techniques. The plate was incubated at 25° C. for 1 hour. The excess unbound conjugate was removed by washing 6 times over a 10 minute period with TBST. 125 μl of tetramethylbenzedine (TMB) substrate solution was added to each well of the plate and incubated for 20 minutes in the dark at room temperature. The reaction was stopped by the addition of 125 μl of 0.2M H2SO4 to each well. The absorbance was then measured at 450 nm using a microtitre plate reader.

[2] = system: antiserum raised to Immunogen C (Hapten-C-BTG); experiment: Competitive ELISA with antiserum raised to Immunogen C and Conjugate C (Hapten-C-HRP) as detection reagent; type: binding, sheep; conditions: for % CR (percentage cross-reactivity based on specificity to Zaleplon) / IC50 (standard concentration which produces 50% B/B0): antiserum to Immunogen C, Conjugate C
[3] = antiserum to Immunogen A, Conjugate A
[4] = standard concentration 0.156 ng/ml
[5] = standard concentration 0.313 ng/ml
[6] = standard concentration 0.625 ng/ml
[7] = standard concentration 1.250 ng/ml
[8] = standard concentration 2.500 ng/ml
[9] = standard concentration 5.000 ng/ml
[10] = standard concentration 10.000 ng/ml
[11] = standard concentration 0.025 ng/ml
[12] = standard concentration 0.050 ng/ml
[13] = standard concentration 0.100 ng/ml
[14] = standard concentration 0.200 ng/ml
[15] = standard concentration 0.400 ng/ml
[16] = standard concentration 0.800 ng/ml
[17] = standard concentration 1.600 ng/ml

Row | Compound | % CR (percentage cross-reactivity based on specificity to Zaleplon) [1, 3] [%] | % CR (percentage cross-reactivity based on specificity to Zaleplon) [2] [%] | IC50 (standard concentration which produces 50% B/B0) [2] [ng/mL] | % B/B0 [2, 4] [%] | A450 [2, 4] | % B/B0 [2, 5] [%] | A450 [2, 5] | % B/B0 [2, 6] [%] | A450 [2, 6] | % B/B0 [2, 7] [%] | A450 [2, 7] | % B/B0 [2, 8] [%] | A450 [2, 8] | % B/B0 [2, 9] [%] | A450 [2, 9] | % B/B0 [2, 10] [%] | A450 [2, 10] | also measured
1 | CC(=O)N(C)c1cccc(-c2ccnc3c(C(=O)c4cccs4)cnn23)c1 [Indiplon, indiplon] | <0.63 | 22 | 1.967 (≈ 5.23 nM) | 84 | 1.831 | 77 | 1.664 | 67 | 1.455 | 57 | 1.234 | 46 | 1.006 | 36 | 0.778 | 27 | 0.579 | IC50 (standard concentration which produces 50% B/B0) [1, 3]: >10 ng/mL; % B/B0 [1, 4]: 96%; A450 [1, 4]: 2.063; % B/B0 [1, 5]: 94%; A450 [1, 5]: 2.019; % B/B0 [1, 6]: 93%; A450 [1, 6]: 1.982; % B/B0 [1, 7]: 99%; A450 [1, 7]: 2.112; % B/B0 [1, 8]: 88%; A450 [1, 8]: 1.877; % B/B0 [1, 9]: 91%; A450 [1, 9]: 1.940; % B/B0 [1, 10]: 90%; A450 [1, 10]: 1.931
2 | CCN(C(C)=O)c1cccc(-c2ccnc3c(C#N)cnn23)c1 [Zaleplon, zaleplon] | 100 | 100 | 0.432 (≈ 1.41 nM) | 65 | 1.487 | 54 | 1.236 | 45 | 1.021 | 36 | 0.825 | 27 | 0.610 | 20 | 0.457 | 15 | 0.337 | IC50 of zaleplon-specific antibody ([1]; as stated in the description): 0.063 ng/mL; % B/B0 [1, 11]: 72%; A450 [1, 11]: 1.542; % B/B0 [1, 12]: 55%; A450 [1, 12]: 1.180; % B/B0 [1, 13]: 40%; A450 [1, 13]: 0.860; % B/B0 [1, 14]: 28%; A450 [1, 14]: 0.602; % B/B0 [1, 15]: 19%; A450 [1, 15]: 0.406; % B/B0 [1, 16]: 13%; A450 [1, 16]: 0.286; % B/B0 [1, 17]: 10%; A450 [1, 17]: 0.211

— patent US8852953B2, “Immunodetection and quantification of pyrazolopyrimidine sedatives” (Randox Laboratories Ltd., priority 2009, dated 2014)
